Where two headings read alike, the source gives them in different places.
Tests used:
Assay type in all cases: cell-based
[1] = test system: Huh7 cells; experiment: MTT cell viability assay, Huh7 cells, 72 h; conditions: read-out: Huh7 CC50
Description: (§1) Huh-7 cells and derived from hepatocellular carcinoma cells, and were donated by Dr. Xuanyong Lu, (Drexel University College of Medicine, Doylestown, Pa.). THLE-2 were purchased from American Type Culture Collection (Manassas, Va.). PH5CH were donated by Dr. Masayuki Noguchi (University of Tsukuba, Ibaraki, Japan). THLE-2 and PH5CH have been immortalized through stable transfection of the SV40 large T antigen in normal hepatocytes, and are thus cell lines that are representative of normal hepatocytes rather than HCC cells. THLE2 have been confirmed to not form tumors in athymic mice. All cell lines were cultured and maintained in 5% CO2 at 37° C. Huh-7 were maintained in the culture media DMEM/F12 (Dulbecco's Modified Eagle Medium) with 10% Fetal bovine serum (FBS), 100 μg/mL penicillin, 100 units/mL streptomycin, and 50 μg/mL normocin. THLE-2 and PH5CH were maintained in the culture media Brochial Epithelial Growth Media (BEGM) with 10% FBS, 100 μg/mL penicillin, 100 units/mL streptomycin, with the following additives form the prepackaged kit: Bovine pituitary extract (BPE), insulin, hydrocortisone, retinoic acid, transferrin, triiodothyronine, supplemented with 5 ng/ml human epidermal growth factor and 70 ng/ml phosphoethanolamine (Lonza Walkersville Inc., Walkersville, Md.).
(§2) Huh7 cells were plated on 96-well plates at 2.0×10^4 cells per well to permit grow in the presence of compounds of the disclosure. Compounds of the disclosure were prediluted and transferred to cell plates by automated liquid handling. Cells were incubated with compounds of the disclosure for 72 hours, after which culture growth and viability were assessed by addition of 50 μg/mL 3-(4,5-Dimethyl-2-thiazolyl)-2,5-diphenyl-2H-tetrazolium bromide (MTT) incubation for 4 hours at 37° C. Solubilization buffer (0.01M HCl, 10% SDS) was added followed by incubation at 37° C. overnight. Absorbance was measured at 570 nm (reference 630 nm). Compound of the disclosure were tested in Huh7, THLE-2 and PH5CH, over eight-point dilutions in half-log steps, testing 50.0, 16.6, 5.0, 1.66, 0.5, 0.166, 0.05, and 0.016 μM in 0.5% DMSO, with each concentration in duplicate wells. […] Each compound was tested from 2 to 7 times in separate assay trials.

[2] = MTT cell viability assay, THLE2 cells, 72 h; conditions: human, immortalized normal hepatocytes THLE2, 72 hours, 0.016-50.0 μM tested
Description: as §1, with “THLE2 have been confirmed to not form tumors in athymic mice.” left out
as §2
(§3) Selectivity of toxicity in HCC-derived cells over normal liver-derived cells is important for the purposes of developing a therapy that specifically targets the cancer with low toxicity for […]. The Selective Index (SI) is the ratio of CC50 in normal cells (THLE2 or PH5CH) over the CC50 in the liver cancer derived cells; thus, the higher the number, the lower the potential toxicity at an efficacious dose.

[3] = MTT cell viability assay, PH5CH cells, 72 h; conditions: human, immortalized normal hepatocytes PH5CH, 0.016-50.0 μM tested
Description: as §1, §2, §3

[4] = test system: THLE2 cells; experiment: MTT cell viability assay, THLE2 cells, 72 h; conditions: immortalized normal hepatocytes THLE2, 72 hours, 0.016-50.0 μM tested
Description: as §1, with “THLE2 have been confirmed to not form tumors in athymic mice.” left out
as §2, §3

[5] = test system: PH5CH cells; experiment: MTT cell viability assay, PH5CH cells, 72 h; conditions: immortalized normal hepatocytes PH5CH, 0.016-50.0 μM tested
Description: as §1, §2, §3

[6] = Homo sapiens, Huh-7, hepatocellular carcinoma derived Huh7 cells, 72 hours, MTT, 0.016-50.0 μM tested

`Cc1c(Cl)cccc1Nc1nc(-c2ccccn2)cs1` [Entry 46] showed a CC50 [1, 6] of 3.5 µM.
In the case of `CC(C)c1sc(Nc2ncccn2)nc1-c1ccccn1` [Entry 24], the CC50 ([1]; Homo sapiens, Huh-7, 72 h) was 11.3 µM, the CC50 at 72 h [2] was at least 50 µM and the CC50 at 72 h [3] was at least 50 µM.
`OCCN(c1ncccn1)c1nc(-c2ccccn2)cs1` [Entry 17] showed a CC50 [1, 6] of 48.9 µM, a CC50 at 72 h [2] of at least 50 µM and a CC50 at 72 h [3] of at least 50 µM.
Compound `OCc1sc(Nc2ncccn2)nc1-c1ccccn1` [Entry 20] has a CC50 [1, 6] of 11.3 µM, a CC50 at 72 h [2] of 31.1 µM and a CC50 at 72 h [3] of 46.9 µM.
`N#Cc1sc(Nc2ncccn2)nc1-c1ccccn1` [Entry 29] gave a CC50 ([1]; hepatocellular carcinoma derived Huh7 cells, 72 hours, MTT, 0.016-50.0 μM tested) of at most 0.016 µM, a CC50 [4] of at least 50 µM and a CC50 [5] of at least 50 µM.
With `c1ccc(Nc2nc(-c3ccccn3)cs2)cc1` [Entry 6] the CC50 [1, 6] was 6.53 µM.
Work on `Cc1ccnc(Nc2nc(-c3ccccn3)cs2)n1` [Entry 30] yielded a CC50 [1, 6] of at least 50 µM, a CC50 at 72 h [2] of at least 50 µM and a CC50 at 72 h [3] of at least 50 µM.
For `NC(=O)c1sc(Nc2ncccn2)nc1-c1ccccn1` [Entry 41], the CC50 [1, 6] was at least 50 µM, the CC50 at 72 h [2] was 26.6 µM and the CC50 at 72 h [3] was at least 50 µM.
`FC(F)(F)c1ccnc(Nc2nc(-c3ccccn3)cs2)n1` [Entry 34] gave a CC50 [1, 6] of 26.6 µM, a CC50 at 72 h [2] of 37.8 µM and a CC50 at 72 h [3] of at least 50 µM.
Work on `Cc1ccc2nc(Nc3nc(-c4ccccn4)cs3)sc2c1` [Entry 23] yielded a CC50 [1, 6] of 4.92 µM, a CC50 at 72 h [2] of 3.96 µM and a CC50 at 72 h [3] of 3.97 µM.
`c1ccc(-c2csc(Nc3ncccn3)n2)nc1` [Entry 1] gave a CC50 [1, 6] of 1.39 µM, a CC50 at 72 h [2] of 40 µM and a CC50 at 72 h [3] of at least 50 µM.
For `Clc1cnc(Nc2nc(-c3ccccn3)cs2)nc1` [Entry 13], the CC50 [1, 6] was 35 µM and the CC50 at 72 h [2] was at least 50 µM.
With `N#Cc1sc(Nc2ncccn2)nc1-c1ccccn1` [Entry 47] the CC50 [1, 6] was at most 0.016 µM, the CC50 at 72 h [2] was at least 50 µM and the CC50 at 72 h [3] was at least 50 µM.
In the case of `CC(=O)OCc1sc(Nc2ncccn2)nc1-c1ccccn1` [Entry 42], the CC50 [1, 6] was 39.3 µM, the CC50 at 72 h [2] was at least 50 µM and the CC50 at 72 h [3] was at least 50 µM.
Compound `c1cnc(Nc2nc(-c3cccnc3)cs2)nc1` [Entry 4] has a CC50 [1, 6] of 6.3 µM and a CC50 at 72 h [2] of 8.66 µM.
`CCOC(=O)c1sc(Nc2ncccn2)nc1-c1ccccn1` [Entry 19] showed a CC50 [1, 6] of 0.362 µM, a CC50 at 72 h [2] of 38.7 µM and a CC50 at 72 h [3] of 44 µM.
`Cc1ccnc(-c2csc(Nc3ncccn3)n2)c1` [Entry 8] showed a CC50 [1, 6] of 0.563 µM, a CC50 at 72 h [2] of 14 µM and a CC50 at 72 h [3] of 34 µM.
For `Cc1cnc(-c2csc(Nc3ncccn3)n2)c(C)c1` [Entry 27], the CC50 [1, 6] was 2.74 µM, the CC50 at 72 h [2] was 2.23 µM and the CC50 at 72 h [3] was 47.6 µM.
For `CCOC(=O)c1sc(Nc2ncccn2)nc1-c1cc(C)ccn1` [Entry 35], the CC50 [1, 6] was 4.72 µM, the CC50 at 72 h [2] was 37.2 µM and the CC50 at 72 h [3] was 39.2 µM.
For `Oc1cccc(Nc2nc(-c3ccccc3)cs2)c1` [Entry 45], the CC50 [1, 6] was 8 µM and the CC50 at 72 h [2] was at least 50 µM.
With `Brc1sc(Nc2ncccn2)nc1-c1ccccn1` [Entry 9] the CC50 [1, 6] was 2.53 µM and the CC50 at 72 h [2] was 29.9 µM.
Compound `c1ccc(CN(c2ncccn2)c2nc(-c3ccccn3)cs2)cc1` [Entry 18] has a CC50 [1, 6] of at least 50 µM, a CC50 at 72 h [2] of 49.8 µM and a CC50 at 72 h [3] of 46.9 µM.
Work on `c1ccc(Nc2nc(-c3ccccc3)cs2)cc1` [Entry 7] yielded a CC50 [1, 6] of 10.3 µM and a CC50 at 72 h [2] of 21.1 µM.
For `Brc1cccc(-c2csc(Nc3ncccn3)n2)n1` [Entry 10], the CC50 [1, 6] was 7.82 µM and the CC50 at 72 h [2] was 9.75 µM.
With `Cc1sc(Nc2ncccn2)nc1-c1ccccn1` [Entry 22] the CC50 [1, 6] was 5.92 µM, the CC50 at 72 h [2] was 42.9 µM and the CC50 at 72 h [3] was 42 µM.
In the case of `c1ccc(-c2csc(Nc3ccncn3)n2)nc1` [Entry 12], the CC50 [1, 6] was 3.05 µM and the CC50 at 72 h [2] was 4.47 µM.
In the case of `c1ccc(-c2csc(Nc3cnccn3)n2)nc1` [Entry 11], the CC50 [1, 6] was 5 µM and the CC50 at 72 h [2] was 0.539 µM.
Compound `COC(=O)c1sc(Nc2ncccn2)nc1-c1ccccn1` [Entry 38] has a CC50 [1, 6] of 1.25 µM, a CC50 at 72 h [2] of 29.4 µM and a CC50 at 72 h [3] of 38.6 µM.
`CCOC(=O)c1sc(Nc2ncccn2)nc1-c1cccc(C)n1` [Entry 36] showed a CC50 [1, 6] of at least 50 µM, a CC50 at 72 h [2] of at least 50 µM and a CC50 at 72 h [3] of at least 50 µM.
Work on `CN(c1ncccn1)c1nc(-c2ccccn2)cs1` [Entry 15] yielded a CC50 [1, 6] of 5.32 µM, a CC50 at 72 h [2] of 49.1 µM and a CC50 at 72 h [3] of 49.7 µM.
With `CC(C)N(c1ncccn1)c1nc(-c2ccccn2)cs1` [Entry 16] the CC50 ([1]; Homo sapiens, Huh-7, 72 h) was 25.7 µM, the CC50 at 72 h [2] was at least 50 µM and the CC50 at 72 h [3] was at least 50 µM.
`Brc1cnc(Nc2nc(-c3ccccn3)cs2)nc1` [Entry 14] showed a CC50 [1, 6] of 31.8 µM and a CC50 at 72 h [2] of 41 µM.
Compound `CCCCCc1sc(Nc2ncccn2)nc1-c1ccccn1` [Entry 25] has a CC50 [1, 6] of 25.9 µM, a CC50 at 72 h [2] of at least 50 µM and a CC50 at 72 h [3] of at least 50 µM.
With `c1cnc(Nc2nc(-c3ccc4ccccc4n3)cs2)nc1` [Entry 32] the CC50 [1, 6] was at least 50 µM, the CC50 at 72 h [2] was 8.02 µM and the CC50 at 72 h [3] was at least 50 µM.
For `c1ccc(-c2nc(Nc3ncccn3)sc2C2CCCCC2)nc1` [Entry 33], the CC50 [1, 6] was at least 50 µM, the CC50 at 72 h [2] was 3.54 µM and the CC50 at 72 h [3] was at least 50 µM.
For `c1cnc(Nc2nc(-c3ccncc3)cs2)nc1` [Entry 5], the CC50 [1, 6] was 14.2 µM and the CC50 at 72 h [2] was 48.5 µM.
With `Oc1cccc(-c2csc(Nc3ncccn3)n2)n1` [Entry 28] the CC50 [1, 6] was 46.2 µM, the CC50 at 72 h [2] was at least 50 µM and the CC50 at 72 h [3] was at least 50 µM.
Compound `CNC(=O)c1sc(Nc2ncccn2)nc1-c1ccccn1` [Entry 39] has a CC50 [1, 6] of 13 µM, a CC50 at 72 h [2] of 10.3 µM and a CC50 at 72 h [3] of 2.89 µM.
`CCCC(=O)OCc1sc(Nc2ncccn2)nc1-c1ccccn1` [Entry 43] gave a CC50 [1, 6] of 11 µM, a CC50 at 72 h [2] of at least 50 µM and a CC50 at 72 h [3] of at least 50 µM.
`CCc1sc(Nc2ncccn2)nc1-c1ccccn1` [Entry 21] gave a CC50 [1, 6] of 15.4 µM, a CC50 at 72 h [2] of 24.7 µM and a CC50 at 72 h [3] of 44.1 µM.
Compound `c1ccc(-c2csc(Nc3ncccn3)n2)cc1` [Entry 3] has a CC50 [1, 6] of 6.43 µM and a CC50 at 72 h [2] of 9.16 µM.
Work on `O=C(NCc1ccccc1)c1sc(Nc2ncccn2)nc1-c1ccccn1` [Entry 37] yielded a CC50 [1, 6] of 17.7 µM, a CC50 at 72 h [2] of at least 50 µM and a CC50 at 72 h [3] of 31.5 µM.
With `CCOC(=O)c1sc(Nc2nccc(C)n2)nc1-c1ccccn1` [Entry 31] the CC50 [1, 6] was at most 0.016 µM, the CC50 at 72 h [2] was at least 50 µM and the CC50 at 72 h [3] was at least 50 µM.
Work on `CN(Cc1cnc2nc(N)nc(N)c2n1)c1ccc(C(=O)NC(CCC(=O)NCCOCCOCCOCCOCCOCCNC(=O)c2sc(Nc3ncccn3)nc2-c2ccccn2)C(=O)OC(C)(C)C)cc1` (stereo not drawn) [Entry 40] yielded a CC50 [1, 6] of 34.8 µM, a CC50 at 72 h [2] of at least 50 µM and a CC50 at 72 h [3] of at least 50 µM.
`CC(C)(C)OC(=O)c1sc(N(c2ncccn2)C(C)(C)C)nc1-c1ccccn1` [Entry 44] showed a CC50 ([1]; Homo sapiens, Huh-7, 72 h) of 20.5 µM, a CC50 at 72 h [2] of at least 50 µM and a CC50 at 72 h [3] of at least 50 µM.

From patent US10087173B2, “Substituted aminothiazoles as inhibitors of cancers, including hepatocellular carcinoma, and as inhibitors of hepatitis virus replication” (BARUCH S. BLUMBERG INSTITUTE, priority 2011, dated 2018)
